In patent US20030224978A1, “Compounds and methods for modulating apoptosis” (McGill University, priority 1996, published 2003):
Entries after “also recorded” stand apart in the source; their conditions may differ. Positions of bridges follow the written chain, without caps; N, C: chain ends. Residues, ends and D or L forms follow the SMILES beside them.

Assays:
SKOV3 cells = assay: Disruption of human ovarian cancer cell (SKOV3) adhesion; assay type: cell-based; conditions: for effect on SKOV3 cell adhesion: final concentration of 1 mg/mL media, within 24 hours; for activity on SKOV3 cell adhesion: 0.01-1 mg/mL, up to 48 hours
Text: Within one representative cell adhesion assay, the addition of a modulating agent to cells that express a cadherin results in disruption of cell adhesion. A “cadherin-expressing cell,” as used herein, may be any type of cell that expresses at least one cadherin on the cell surface at a detectable level, using standard techniques such as immunocytochemical protocols (Blaschuk and Farookhi, Dev. Biol. 136:564-567, 1989). Cadherin-expressing cells include endothelial (e.g., bovine pulmonary artery endothelial cells), epithelial and/or cancer cells (e.g., the human ovarian cancer cell line SKOV3 (ATCC #HTB-77)). For example, such cells may be plated under standard conditions that permit cell adhesion in the presence and absence of modulating agent (e.g., 500 μg/mL). Disruption of cell adhesion may be determined visually within 24 hours, by observing retraction of the cells from one another.
The human ovarian cancer cell line SKOV3 (ATCC #HTB-77) expresses N-cadherin. SKOV3 cells were cultured in a modified MEM-based media containing 10% FCS. Cells were grown in T-250 culture flasks and maintained by periodic subculturing. Cyclic peptides were tested on cells grown in individual wells of 96-well culture dishes (surface area of each well was 0.32 cm^2). Cells were harvested from flasks and seeded at a density of 50,000 cells per well in 0.1 mL media containing the cyclic peptides at concentrations of 1, 0.1, or 0.01 mg/mL, or in the absence of cyclic peptide. Media control wells were also established. Cultures were evaluated periodically by microscopic examination under both bright field and phase contrast conditions. Cultures were maintained for 48 hours.

[1] = tested on: bovine pulmonary artery endothelial cells; assay: Disruption of bovine endothelial cell adhesion; assay type: cell-based; conditions: 500 μg/ml, 30 minutes
Description: For use within one such assay, bovine pulmonary artery endothelial cells may be harvested by sterile ablation and digestion in 0.1% collagenase (type II; Worthington Enzymes, Freehold, N.J.). Cells may be maintained in Dulbecco's minimum essential medium supplemented with 10% fetal calf serum and 1% antibiotic-antimycotic at 37° C. in 7% CO2 in air. Cultures may be passaged weekly in trypsin-EDTA and seeded onto tissue culture plastic at 20,000 cells/cm^2. Endothelial cultures may be used at 1 week in culture, which is approximately 3 days after culture confluency is established. The cells may be seeded onto coverslips and treated (e.g., for 30 minutes) with modulating agent or a control compound at, for example, 500 μg/ml and then fixed with 1% paraformaldehyde. As noted above, disruption of cell adhesion may be determined visually within 24 hours, by observing retraction of the cells from one another. This assay evaluates the effect of a modulating agent on N-cadherin mediated cell adhesion.
Bovine pulmonary artery endothelial cells were harvested by sterile ablation and digestion in 0.1% collagenase (type II; Worthington Enzymes, Freehold, N.J.). Cells were maintained in Dulbecco's […] essential medium (Clonetics, San Diego, Calif.) supplemented with 10% fetal calf serum (Atlantic Biologicals, Nor cross, Ga.) and 1% antibiotic-antimycotic at 37° C. in 7% CO2 in air. Cultures were passaged weekly in trypsin-EDTA (Gibco, Grand Island, N.Y.) and seeded onto tissue culture plastic at 20,000 cells/cm^2 for all experiments. Endothelial cultures were used at 1 week in culture, which is approximately 3 days after culture confluency was established. The cells used in all protocols were between 4th passage and 10th passage. The cells were seeded onto coverslips and treated 30 minutes with N-Ac-CHAVC-NH2 (SEQ ID NO:10) or N-Ac-CHGVC-NH2 (SEQ ID NO:20) at 500 μg/ml and then fixed with 1% paraformaldehyde.

in vitro [2] = assay type: cell-based; conditions: human
Procedure, shortened: (§1)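 Cytotoxicity assessed by MTT assay and proliferation by ³H-thymidine incorporation, with peptides tested at concentrations up to 100 μM.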

in vitro [3] = assay type: cell-based; conditions: human; remark: listed apart in the source
Procedure, shortened: as §1

in vitro [4] = assay type: cell-based; conditions: human; remark: listed apart in the source
Procedure, shortened: as §1

[5] = tested on: angiogenesis in chick embryonic chorioallantoic membranes; assay: Chick chorioallantoic membrane angiogenesis assay; assay type: in vivo; conditions: for inhibition of angiogenesis, in words: 3, 17, and 33 μg/mesh; for percent inhibition of angiogenesis: 24 hours
Description: The chick chorioallantoic membrane assay was used to assess the effects of cyclic peptides on angiogenesis (Iruela-Arispe et al., Molecular Biology of the Cell 6:327-343, 1995). Cyclic peptides were embedded in a mesh composed of vitrogen at concentrations of 3, 17, and 33 μg/mesh. The meshes were then applied to 12-day-old chick embryonic chorioallantoic membranes. After 24 hours, the effects of the peptides on angiogenesis were assessed by computer assisted morphometric analysis.
For each concentration of cyclic peptide, the percent inhibition of angiogenesis (relative to the level of angiogenesis in the absence of cyclic peptide) is provided. Assays were performed in the presence (+) or absence (−) of […] VEGF. For example, the cyclic peptide N-Ac-CHAVC-NH2 (SEQ ID NO:10) inhibited angiogenesis by 46%, 51%, and 51% at concentrations of 3, 17, and 33 μg/mesh, respectively.

in vitro [6] = assay type: cell-based; conditions: human; remark: listed apart in the source
Procedure, shortened: as §1

**Q.** Which “effect on SKOV3 cell adhesion” value (SKOV3 cells) does the source give for `CC(=O)N[C@H]1CSSC[C@@H](C(N)=O)NC(=O)[C@H](C(C)C)NC(=O)CNC(=O)[C@H](Cc2c[nH]cn2)NC1=O` [N-Ac-CHGVC-NH2, reference compound] here?
**A.** had no affect on cell adhesion

**Q.** And the “effect on endothelial cell monolayer / morphology” value [1]?
**A.** inactive

**Q.** With `CC(=O)N[C@H]1CSSC[C@@H](C(N)=O)NC(=O)[C@H](C(C)C)NC(=O)[C@H](C)NC(=O)[C@H](Cc2c[nH]cn2)NC1=O` [N-Ac-CHAVC-NH2, N-Ac-Cys-His-Ala-Val-Cys-NH2] as the compound, how does the SKOV3 cell morphology (SKOV3 cells; 0.5 mg/ml, 24 hours) read?
**A.** round-up

**Q.** What about the SKOV3 cell morphology (SKOV3 cells; 0.5 or 1 mg/ml, 24-48 hours) of the same compound?
**A.** retract from one another and round-up

**Q.** And the “effect on SKOV3 cell adhesion” value (SKOV3 cells)?
**A.** disrupted SKOV3 cell adhesion

**Q.** What about the “effect on endothelial cell monolayer / morphology” value [1] of the same compound?
**A.** disrupted the endothelial cell monolayer; also recorded: retracted from one another

**Q.** What does the source list for `CC(=O)N[C@H]1CSSC[C@@H](C(N)=O)NC(=O)[C@H](CC(=O)O)NC(=O)[C@H](C(C)C)NC(=O)[C@H](C)NC(=O)[C@H](Cc2c[nH]cn2)NC(=O)[C@H](C)NC1=O` [N-Ac-CAHAVDC-NH2, N-Ac-Cys-Ala-His-Ala-Val-Asp-Cys-NH2] (Ac-CAHAVDC-NH2; disulfide 1-7)?
**A.** IC50 (in vitro [2]): > 100 µM; IC50 (in vitro [3]): > 100 µM; IC50 (in vitro [4]): > 100 µM; activity on SKOV3 cell adhesion (SKOV3 cells): inactive; effect on endothelial cell monolayer / morphology [1]: had a slight effect; also recorded: retracted from one another; inhibition of angiogenesis, in words [5]: inhibited angiogenesis significantly; IC50 (in vitro [6]): > 100 µM

**Q.** Which results are given for `CC[C@H](C)[C@@H]1NC(=O)[C@H](CC(=O)O)NC(=O)[C@H](C(C)C)NC(=O)[C@H](C)NC(=O)[C@H](Cc2c[nH]cn2)NC(=O)[C@H](C)NC(=O)[C@@H](NC(C)=O)CSSC[C@@H](C(N)=O)NC1=O` (Ac-CAHAVDIC-NH2; disulfide 1-8)?
**A.** IC50 (in vitro [2]): > 100 µM; IC50 (in vitro [3]): > 100 µM; IC50 (in vitro [4]): > 100 µM; activity on SKOV3 cell adhesion (SKOV3 cells): inactive; effect on endothelial cell monolayer / morphology [1]: had no effect on endothelial cell morphology; also recorded: neither of the cyclic peptides show activity; inhibition of angiogenesis, in words [5]: inhibited angiogenesis significantly; IC50 (in vitro [6]): > 100 µM

**Q.** Which results are given for `CC(=O)N[C@H]1CSSC[C@@H](C(N)=O)NC(=O)[C@H](CO)NC(=O)[C@H](C(C)C)NC(=O)[C@H](C)NC(=O)[C@H](Cc2c[nH]cn2)NC1=O` [N-Ac-CHAVSC-NH2, N-Ac-Cys-His-Ala-Val-Ser-Cys-NH2] (Ac-CHAVSC-NH2; disulfide 1-6)?
**A.** IC50 (in vitro [2]): > 100 µM; IC50 (in vitro [3]): > 100 µM; IC50 (in vitro [4]): > 100 µM; effect on endothelial cell monolayer / morphology [1]: had no effect on endothelial cell morphology; percent inhibition of angiogenesis ([5]; 3 μg/mesh, absence (−) of 0.01 mM VEGF): 11%; percent inhibition of angiogenesis ([5]; 3 μg/mesh, presence (+) of 0.01 mM VEGF): 17%; percent inhibition of angiogenesis ([5]; 17 μg/mesh, absence (−) of 0.01 mM VEGF): 12%; percent inhibition of angiogenesis ([5]; 17 μg/mesh, presence (+) of 0.01 mM VEGF): 16%; percent inhibition of angiogenesis ([5]; 33 μg/mesh, absence (−) of 0.01 mM VEGF): 17%; percent inhibition of angiogenesis ([5]; 33 μg/mesh, presence (+) of 0.01 mM VEGF): 19%; inhibition of angiogenesis, in words [5]: relatively inactive; IC50 (in vitro [6]): > 100 µM
